The target in test [1] is T1, full length (FL) LXRβ (Homo sapiens, UniProt P55055, DUP175-175).
T1 construct: the full length (FL) proteins of LXRα (amino acids 1-447); NP005684; NP009052; expressed in transfected cells; host or cells: HEK293
T1 sequence (P55055 with tags, fused parts or gaps DUP175-175): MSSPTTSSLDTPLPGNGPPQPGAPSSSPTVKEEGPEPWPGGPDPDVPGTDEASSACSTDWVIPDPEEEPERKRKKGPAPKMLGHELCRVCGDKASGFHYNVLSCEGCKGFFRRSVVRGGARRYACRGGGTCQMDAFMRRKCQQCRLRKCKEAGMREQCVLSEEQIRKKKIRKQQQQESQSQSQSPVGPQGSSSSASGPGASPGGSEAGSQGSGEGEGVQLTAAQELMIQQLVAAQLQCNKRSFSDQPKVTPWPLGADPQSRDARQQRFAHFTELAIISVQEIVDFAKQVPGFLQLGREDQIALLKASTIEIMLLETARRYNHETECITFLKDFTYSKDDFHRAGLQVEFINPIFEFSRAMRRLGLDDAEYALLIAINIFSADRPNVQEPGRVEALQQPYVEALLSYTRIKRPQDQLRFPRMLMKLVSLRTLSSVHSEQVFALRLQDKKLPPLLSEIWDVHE
The test is described as follows: LXR Gal4 reporter transient transfection assay (FL-M2H Gal4β). In kind it is cell-based. The conditions noted are these: HEK293 cells, full length LXRβ; read-out: FL-M2H Gal4β (EC50 range). On the procedure: (§1) The tested compounds were usually dissolved, tested and stored as 20 mM stock solutions in DMSO. Since sulfonyl acetic acid derivatives tend to decarboxylate under these conditions, these stock solutions were prepared, tested and stored as 20 mM DMSO stock solutions containing 100 mM trifluoroacetic Acid (5 equivalents). Sulfonyl acetic acid derivatives are shelf stable as solid at rt for long time as reported by Griesbrecht et al. (Synlett 2010:374) or Faucher et al. (J. Med. Chem. 2004; 47:18).
(§2) LXR Gal4 Reporter Transient Transfection Assays
(§3) LXRα and LXRβ activity status was determined via detection of interaction with coactivator and corepressor proteins in mammalian two-hybrid experiments (M2H). For this, via transient transfection the full length (FL) proteins of LXRα (amino acids 1-447; NP005684; SEQ ID NO:1) or LXRβ-(amino acids 1-461; NP009052; SEQ ID NO:2) or the ligand-binding domains (LBD) of LXRα (amino acids 155-447 SEQ ID NO:3) or LXRβ (amino acids 156-461; SEQ ID NO:4) were expressed from pCMV-AD (Stratagene) as fusions to the transcriptional activation domain of NFkB. As cofactors, domains of either the steroid receptor coactivator 1 (SRC1; amino acids 552-887; SEQ ID NO:5) or of the corepressor NCoR (amino acids 1906-2312; NP006302; SEQ ID NO:6) were expressed as fusions to the DNA binding domain of the yeast transcription factor GAL4 (from pCMV-BD; Stratagene). Interaction was monitored via activation of a coexpressed Firefly Luciferase Reporter gene under control of a promoter containing repetitive GAL4 response elements (vector pFRLuc; Stratagene). Transfection efficiency was controlled via cotransfection of constitutively active pRL-CMV Renila reniformis luciferase reporter (Promega). HEK293 cells were grown in minimum essential medium (MEM) with 2 mM L-glutamine and Earle's balanced salt solution supplemented with 8.3% fetal bovine serum, 0.1 mM non-essential amino acids, 1 mM sodium pyruvate, at 37° C. in 5% CO2. 3.5×10^4 cells/well were plated in 96-well cell culture plates in growth medium supplemented with 8.3% fetal bovine serum for 16-20 h to ˜90% confluency. For transfection, medium was taken off and LXR and cofactor expressing plasmids as well as the reporter plasmids are added in 30 μL OPTIMEM/well including polyethylene-imine (PEI) as vehicle. Typical amounts of plasmids transfected/well: pCMV-AD-LXR (5 ng), pCMV-BD-cofactor (5 ng), pFR-Luc (100 ng), pRL-CMV (0.5 ng). Compound stocks were prepared in DMSO, prediluted in MEM to a total volume of 120 μL, and added 4 h after addition of the transfection mixture (final vehicle concentration not exceeding 0.2%). Cells were incubated for additional 16 h, lysed for 10 min in 1× Passive Lysis Buffer (Promega) and Firefly and Renilla luciferase activities were measured sequentially in the same cell extract using buffers containing D-luciferine and coelenterazine, respectively. Measurements of luminescence were done in a BMG-luminometer.

The target in test [2] is T2, full length (FL) LXRα (Homo sapiens, UniProt Q13133).
T2 construct: the full length (FL) proteins of LXRα (amino acids 1-447); NP005684; expressed in transfected cells; host or cells: HEK293
T2 sequence (Q13133 1-447): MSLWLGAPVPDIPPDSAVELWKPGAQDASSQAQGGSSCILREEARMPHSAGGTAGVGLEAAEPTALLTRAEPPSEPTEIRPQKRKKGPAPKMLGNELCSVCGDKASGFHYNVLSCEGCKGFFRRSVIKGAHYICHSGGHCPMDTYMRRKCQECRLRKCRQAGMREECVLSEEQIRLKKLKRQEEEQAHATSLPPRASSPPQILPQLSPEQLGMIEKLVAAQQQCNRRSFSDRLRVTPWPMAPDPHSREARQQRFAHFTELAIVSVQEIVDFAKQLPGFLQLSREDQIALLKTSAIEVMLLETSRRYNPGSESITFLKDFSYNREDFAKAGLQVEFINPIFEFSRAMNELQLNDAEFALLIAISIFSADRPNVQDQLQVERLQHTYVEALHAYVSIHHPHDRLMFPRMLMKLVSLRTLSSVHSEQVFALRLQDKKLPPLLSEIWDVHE
The test is described as follows: LXR Gal4 reporter transient transfection assay (FL-M2H Gal4α). The class given is cell-based. The following applies: HEK293 cells, full length LXRα; read-out: FL-M2H Gal4α (EC50 range). As to the method:
as §1, §2, §3

The target of test [3] is T3, LXRβ ligand-binding domain (Homo sapiens, UniProt P55055, DUP175-175).
T3 construct: amino acids 156-461; NP009052; made in house; host or cells: E. coli
T3 sequence (P55055 with tags, fused parts or gaps DUP175-175 limits assumed): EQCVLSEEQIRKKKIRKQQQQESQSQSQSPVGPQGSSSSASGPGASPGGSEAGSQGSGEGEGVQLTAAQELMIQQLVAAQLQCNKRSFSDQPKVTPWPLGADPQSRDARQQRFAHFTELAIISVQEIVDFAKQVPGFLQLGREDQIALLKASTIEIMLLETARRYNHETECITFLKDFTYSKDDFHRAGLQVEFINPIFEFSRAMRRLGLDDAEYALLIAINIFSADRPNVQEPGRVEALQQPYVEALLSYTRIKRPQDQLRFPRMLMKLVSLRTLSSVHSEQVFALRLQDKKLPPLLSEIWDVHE
The test is described as follows: TR-FRETβ activity assay (NCoA3 coactivator peptide recruitment). In kind it is biochemical. The following applies: TR-FRET, 1 μM 24(S)-25-epoxycholesterol prestimulation; read-out: FRETβ (EC50 range). As to the method:
as §1
Recombinant GST-LXRPβ ligand-binding domain (LBD; amino acids 156-461; NP009052; SEQ ID NO:4) was expressed in E. coli and purified via gluthatione-sepharose affinity chromatography. N-terminally biotinylated NCoA3 coactivator peptide (SEQ ID NO:7) was chemically synthesized (Eurogentec). Assays were done in 384 well format (final assay volume of 25 μL/well) in a Tris/HCl buffer (pH 6.8) containing KCl, bovine serum albumin, Triton-X-100 and 1 μM 24(S)-25-epoxycholesterol as LXR-prestimulating agonist. Assay buffer was provided and test articles (potential LXR inverse agonists) were titrated to yield final assay concentrations of 50 μM, 16.7 μM, 5.6 μM, 1.9 μM, 0.6 μM, 0.2 μM, 0.07 μM, 0.02 μM, 0.007 μM, 0.002 μM with one vehicle control. Finally, a detection mix was added containing anti GST-Tb cryptate (CisBio; 610SAXLB) and Streptavidin-XL665 (CisBio; 610SAXLB) as fluorescent donor and acceptor, respectively, as well as the coactivator peptide and LXRβ-LBD protein (SEQ ID NO:4). The reaction was mixed thoroughly, equilibrated for 1 h at 4° C. and vicinity of LXRβ and coactivator peptide was detected by measurement of fluorescence in a VictorX4 multiplate reader (PerkinElmer Life Science) using 340 nm as excitation and 615 and 665 nm as emission wavelengths. Assays were performed in triplicates.
Final Assay Concentrations of Components:
240 mM KCl, 1 μg/μL BSA, 0.002% Triton-X-100, […] anti GST-Tb cryptate, 2.5 ng/μL Streptavidin-XL665, coactivator peptide (400 nM), LXRβ protein (530 μg/mL, i.e. 76 nM).
Background: TR-FRET usually uses a lanthanide donor and a delayed reading to cut background.

`Cc1ccc(S(=O)(=O)n2c(-c3cccc(C4CC5(CC(C(=O)O)C5)C4)c3)c(-c3ccsc3C#N)c3cc(F)ccc32)cc1` (stereo not shown) [3/65]: the EC50 (commonly the concentration needed to bring the measured effect to its halfway point) was under 100 nM in test [1], under 100 nM in test [2] and 100 to 1000 nM in test [3].

As for `COc1sccc1-c1c(-c2cccc(N3CC(C(=O)O)C3)c2)n(S(=O)(=O)c2ccc(C)cc2)c2ccc(F)cc12` [3/3], the EC50 in test [1] lay within 100 to 1000 nM; in test [2], 100 to 1000 nM; in test [3], 1000 to 10000 nM.

Regarding `Cc1ccc(S(=O)(=O)n2c(-c3cccc([C@@H]4C[C@H]4C(=O)O)c3)c(-c3ccsc3C#N)c3ncccc32)cc1` (relative stereo) [Example 4, trans-2-(3-(3-(2-Cyanothioahen-3-yl)-1-tosyl-1H-pyrrolo[3,2-b]pyridin-2-yl)phenyl)cyclopropane-1-carboxylic Acid], the EC50 in test [1] is 100 to 1000 nM; in test [2], under 100 nM; in test [3], 1000 to 10000 nM.

On to `Cc1ccc(S(=O)(=O)n2c(-c3cccc(-c4ccc(C(C)(C)C(=O)O)c(S(C)(=O)=O)c4)c3)c(-c3ccsc3C#N)c3cc(F)ccc32)cc1` [2/18], for which the EC50 was under 100 nM in test [1], 100 to 1000 nM in test [2] and 100 to 1000 nM in test [3].

On to `N#Cc1sccc1-c1c(-c2cccc(-c3cc(F)c(C(=O)O)cc3Cl)c2)n(S(=O)(=O)c2ccc(CF)cc2)c2ccc(F)cc12` [11/7], for which the half-maximal effective concentration (EC50) in test [1], in test [2] and in test [3] was under 100 nM in each case.

Regarding `O=C(O)c1ccc(-c2cccc(-c3c(-c4cccc5oncc45)c4cc(F)ccc4n3S(=O)(=O)c3ccc(C(F)F)cc3)c2)c(Cl)c1` [3/69], the EC50 in test [1], in test [2] and in test [3] was 100 to 1000 nM throughout.

On to `Cc1ccc(S(=O)(=O)n2c(-c3cccc(-c4ccc5c(C(=O)O)n[nH]c5c4)c3)c(-c3ccsc3C#N)c3cc(F)ccc32)cc1` [12/9], for which the half-maximal effective concentration (EC50) in test [1], in test [2] and in test [3] was 100 to 1000 nM throughout.

In the case of `N#Cc1sccc1-c1c(-c2cccc(N3CCC(C(=O)O)CC3)c2)n(S(=O)(=O)c2ccc(C(F)F)cc2)c2ccc(F)cc12` [3/60], the results for the concentration giving a half-maximal response (EC50) in test [1], in test [2] and in test [3] were under 100 nM, under 100 nM and 100 to 1000 nM, respectively.

Take `O=C(O)c1ccc(-c2cccc(-c3c(-c4c(C(F)F)cccc4C(F)F)c4cc(F)ccc4n3S(=O)(=O)c3ccc(C(F)F)cc3)c2)c(Cl)c1` [11/15]: the concentration giving a half-maximal response (EC50) in test [1], in test [2] and in test [3] was under 100 nM throughout.

As for `N#Cc1sccc1-c1c(-c2cccc(N3CC(C(=O)O)C3)c2)n(S(=O)(=O)c2ccc3ccccc3c2)c2ccc(F)cc12` [3/13], the EC50 in test [1] was under 100 nM; in test [2] it was under 100 nM; in test [3], 1000 to 10000 nM.

`CC1(C)CCN(S(=O)(=O)n2c(-c3cccc(-c4ccc(C(=O)O)cc4)c3)c(-c3ccsc3C#N)c3ccccc32)CC1` [3/66]: the half-maximal effective concentration (EC50) in test [1] was 100 to 1000 nM; in test [2], 100 to 1000 nM; in test [3], 1000 to 10000 nM.

With `CC(O)(C(=O)O)c1ccc(-c2cccc(-c3c(-c4c(C#N)cccc4C#N)c4cc(F)ccc4n3S(=O)(=O)c3ccc(C(F)F)cc3)c2)c(Cl)c1` (stereo not shown) [11/60], the EC50 in test [1] and in test [2] was under 100 nM throughout.

In the case of `Cc1cccc(C#N)c1-c1c(-c2cccc(-c3ccc(C(=O)O)cc3Cl)c2)n(S(=O)(=O)c2ccc(C(F)F)cc2)c2ccc(F)cc12` (single isomer, unassigned) [41/2, 2-chloro-3′-(3-(2-cyano-6-methylphenyl)-1-((4-(difluoro-methyl)phenyl)sulfonyl)-5-fluoro-1H-indol-2-yl)-[1,1′-biphenyl]-4-carboxylic Acid], the half-maximal effective concentration (EC50) in test [2] and in test [3] was under 100 nM throughout.

With `N#Cc1sccc1-c1c(-c2cccc(N3CC(C(=O)O)C3)c2)n(S(=O)(=O)c2ccc(OC(F)F)cc2)c2ccc(F)cc12` [3/11], the concentration giving a half-maximal response (EC50) in test [2] lay in the range of 100 to 1000 nM; in test [3], 1000 to 10000 nM.

With `Cc1ccc(S(=O)(=O)n2c(-c3cccc(-c4ccc(C(=O)NCCS(=O)(=O)O)cc4Cl)c3)c(-c3ccsc3C#N)c3cc(F)ccc32)cc1` [Example 10, 2-(2-Chloro-3′-(3-(2-cyanothiophen-3-yl)-5-fluoro-1-tosyl-1H-indol-2-yl)-[1,1′-biphenyl]-4-carboxamido)ethane-1-sulfonic Acid], the EC50 in test [1] and in test [3] was 100 to 1000 nM throughout.

`Cc1ccc(S(=O)(=O)n2c(-c3cccc(N4CC(C(=O)O)C4)c3)c(-c3ccsc3/C=N/O)c3cc(F)ccc32)cc1` [3/7]: the results for the EC50 in test [1] and in test [3] were under 100 nM and 1000 to 10000 nM, respectively.

Source of the values: patent US11618747B2, “LXR modulators with bicyclic core moiety” (OrsoBio, Inc., priority 2018, dated 2023).
